Experimental data as given in ChEMBL document CHEMBL1131648, “Derivatization of soyasapogenol A and their hepatoprotective activities” (1998).

These molecules were tested on HepG2 (assay: Hepatoprotective activity against aflatoxin B1 (10e-5 M) induced Hep G2 cells at a dose of 10 ug/ml).
Format: functional, Homo sapiens

Row | Compound | Protection [%]
1 | CC1(C)C[C@@H](O)[C@]2(C)CC[C@]3(C)C(=CCC4[C@@]5(C)CC[C@H](O)[C@](C)(CO)C5CC[C@]43C)[C@@H]2C1 (stereo partly drawn) | 14
2 | CO[C@@H]1[C@H](OC)C(C)(C)C[C@H]2C3=CCC4[C@@]5(C)CC[C@H](O)[C@](C)(CO)C5CC[C@@]4(C)[C@]3(C)CC[C@@]12C (stereo partly drawn) | 0
3 | CC(=O)O[C@@H]1[C@H](OC(C)=O)C(C)(C)C[C@H]2C3=CCC4[C@@]5(C)CC[C@H](O)[C@](C)(CO)C5CC[C@@]4(C)[C@]3(C)CC[C@@]12C (stereo partly drawn) | 0
4 | CC(=O)OC[C@]1(C)C2CC[C@]3(C)C(CC=C4[C@@H]5CC(C)(C)[C@@H](O)[C@@H](O)[C@]5(C)CC[C@]43C)[C@@]2(C)CC[C@@H]1OC(C)=O (stereo partly drawn) | 0
5 | CC1(C)C[C@H]2C3=CCC4[C@@]5(C)CC[C@H](O)[C@](C)(CO)C5CC[C@@]4(C)[C@]3(C)CC[C@@]2(C)C(=O)[C@@H]1O (stereo partly drawn) | 107
6 | CO[C@H]1[C@@H](O)[C@]2(C)CC[C@]3(C)C(=CCC4[C@@]5(C)CC[C@H](O)[C@](C)(CO)C5CC[C@]43C)[C@@H]2CC1(C)C (stereo partly drawn) | 8
7 | CO[C@@H]1[C@H](O)C(C)(C)C[C@H]2C3=CCC4[C@@]5(C)CC[C@H](O)[C@](C)(CO)C5CC[C@@]4(C)[C@]3(C)CC[C@@]12C (stereo partly drawn) | 20
8 | COC[C@]1(C)C2CC[C@]3(C)C(CC=C4[C@@H]5CC(C)(C)[C@@H](O)[C@@H](O)[C@]5(C)CC[C@]43C)[C@@]2(C)CC[C@@H]1OC (stereo partly drawn) | 7
9 | CC(=O)O[C@H]1[C@@H](O)[C@]2(C)CC[C@]3(C)C(=CCC4[C@@]5(C)CC[C@H](O)[C@](C)(CO)C5CC[C@]43C)[C@@H]2CC1(C)C (stereo partly drawn) | 25
10 | CC1(C)C[C@H]2C3=CCC4[C@@]5(C)CC[C@H](O)[C@](C)(CO)C5CC[C@@]4(C)[C@]3(C)CC[C@@]2(C)C[C@@H]1O (stereo partly drawn) | 25
11 | CC1(C)C[C@H]2C3=CC[C@@H]4[C@@]5(C)CC[C@H](O)[C@](C)(CO)[C@@H]5CC[C@@]4(C)[C@]3(C)CC[C@@]2(C)[C@@H](O)[C@H]1O | 8
12 | CC1(C)C[C@H]2C3=CC[C@@H]4[C@@]5(C)CC[C@H](O)[C@](C)(CO)[C@@H]5CC[C@@]4(C)[C@]3(C)CC[C@@]2(C)[C@@H](O)[C@@H]1O | 0
13 | CC1(C)C[C@H]2C3=CC[C@@H]4[C@@]5(C)CC[C@H](O)[C@](C)(CO)[C@@H]5CC[C@@]4(C)[C@]3(C)CC[C@@]2(C)[C@H](O)[C@H]1O | 0
14 | CC1(C)C[C@H]2C3=CCC4[C@@]5(C)CC[C@H](O)[C@](C)(CO)C5CC[C@@]4(C)[C@]3(C)CC[C@@]2(C)CC1=O (stereo partly drawn) | 37
15 | CC1(C)C[C@H]2C3=CCC4[C@@]5(C)CC[C@H](O)[C@](C)(CO)C5CC[C@@]4(C)[C@]3(C)CC[C@@]2(C)C(=O)C1=O (stereo partly drawn) | 131
16 | CC1(C)C[C@H]2C3=CCC4[C@@]5(C)CC[C@H](O)[C@](C)(CO)C5CC[C@@]4(C)[C@]3(C)CC[C@@]2(C)C[C@H]1O (stereo partly drawn) | 0
17 | CC1(C)C[C@H]2C3=CC[C@@H]4[C@@]5(C)CC[C@H](O)[C@](C)(CO)[C@@H]5CC[C@@]4(C)[C@]3(C)CC[C@@]2(C)[C@H](O)[C@@H]1O [SOYASAPOGENOL A] | 0

The molecules below were run on HepG2 (assay: Hepatoprotective activity against aflatoxin B1 (10e-5 M) induced Hep G2 cells at a dose of 20 ug/ml).
Format: functional, Homo sapiens

Row | Compound | Protection [%]
18 | CC1(C)[C@@H](O[C@H]2O[C@H](C(=O)O)[C@@H](O)[C@H](O)[C@H]2O[C@@H]2O[C@H](C(=O)O)[C@@H](O)[C@H](O)[C@H]2O)CC[C@]2(C)[C@H]3C(=O)C=C4[C@@H]5C[C@@](C)(C(=O)O)CC[C@]5(C)CC[C@@]4(C)[C@]3(C)CC[C@@H]12 [GLYCYRRHIZIN] | 15
